Measurements published in ChEMBL document CHEMBL1201861, “Genomics of Drug Sensitity in Cancer screening data, Wellcome Trust Sanger Institute”.

Key:
Assay in all cases: cells
[1] = test system: COR-L105; format: functional, cell-based, Homo sapiens; conditions: Homo sapiens, COR-L105;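 further: cell growth inhibition determined with a viability assay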
Description: SANGER: Inhibition of human COR-L105 cell growth in a cell viability assay.

[2] = test system: CTB-1; format: functional, cell-based; conditions: Homo sapiens
Description: SANGER: Inhibition of human CTB-1 cell growth in a cell viability assay.

[3] = test system: CW-2; format: functional, cell-based, Homo sapiens; conditions: Homo sapiens, CW-2;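 further: growth inhibition of CW-2 cells, read out by a cell viability assay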
Description: SANGER: Inhibition of human CW-2 cell growth in a cell viability assay.

[4] = test system: DMS-114; format: functional, cell-based, Homo sapiens; conditions: Homo sapiens, DMS-114
[5] = test system: ETK-1; format: functional, cell-based, Homo sapiens; conditions: Homo sapiens, ETK-1;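 further: growth inhibition of human ETK-1 cells, read out with a cell viability assay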
Description: SANGER: Inhibition of human ETK-1 cell growth in a cell viability assay.

[6] = test system: EW-18; format: functional, cell-based; conditions: Homo sapiens;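 further: growth inhibition of EW-18 cells, read out by a cell viability assay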
Description: SANGER: Inhibition of human EW-18 cell growth in a cell viability assay.

[7] = test system: FaDu; format: functional, cell-based, Homo sapiens; conditions: Homo sapiens, FaDu;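 further: cell viability readout of growth inhibition in FaDu cells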
Description: SANGER: Inhibition of human FADU cell growth in a cell viability assay.

[8] = test system: HCC1419; format: functional, cell-based, Homo sapiens; conditions: Homo sapiens, HCC1419;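 further: growth inhibition of human HCC1419 cells, read out as cell viability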
Description: SANGER: Inhibition of human HCC1419 cell growth in a cell viability assay.

[9] = test system: HCC1954; format: functional, cell-based, Homo sapiens; conditions: Homo sapiens, HCC1954;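 further: growth inhibition of human HCC1954 cells, read out with a cell viability assay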
Description: SANGER: Inhibition of human HCC1954 cell growth in a cell viability assay.

[10] = test system: HCC38; format: functional, cell-based, Homo sapiens; conditions: Homo sapiens, HCC38;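 further: cell viability assay on the human HCC38 cell line, with IC50 marking the concentration that inhibits cell growth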
Description: SANGER: Inhibition of human HCC38 cell growth in a cell viability assay.

[11] = test system: Hs-578T; format: functional, cell-based, Homo sapiens; conditions: Homo sapiens, Hs-578T
Description: SANGER: Inhibition of human Hs-578-T cell growth in a cell viability assay.

[12] = test system: HuP-T4; format: functional, cell-based, Homo sapiens; conditions: Homo sapiens, HuP-T4;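 further: cell viability assay measuring how much HuP-T4 cell growth is inhibited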
Description: SANGER: Inhibition of human HuP-T4 cell growth in a cell viability assay.

[13] = test system: KMOE-2; format: functional, cell-based; conditions: Homo sapiens;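 further: growth inhibition of human KMOE-2 cells, read out with a cell viability assay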
Description: SANGER: Inhibition of human KMOE-2 cell growth in a cell viability assay.

[14] = test system: LU-134-A; format: functional, cell-based; conditions: Homo sapiens
Description: SANGER: Inhibition of human LU-134-A cell growth in a cell viability assay.

[15] = test system: M14; format: functional, cell-based, Homo sapiens; conditions: Homo sapiens, M14;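 further: growth inhibition of M14 cells, read out with a cell viability assay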
Description: SANGER: Inhibition of human M14 cell growth in a cell viability assay.

[16] = test system: MCF7; format: functional, cell-based, Homo sapiens; conditions: Homo sapiens, MCF7;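 further: growth inhibition of human MCF7 cells, read out with a cell viability assay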
Description: SANGER: Inhibition of human MCF7 cell growth in a cell viability assay.

[17] = test system: MS-1; format: functional, cell-based; conditions: Homo sapiens;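 further: growth inhibition of MS-1 cells, read out by cell viability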
Description: SANGER: Inhibition of human MS-1 cell growth in a cell viability assay.

[18] = test system: NB10; format: functional, cell-based, Homo sapiens; conditions: Homo sapiens, NB10;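 further: growth inhibition of NB10 cells, read out by a cell viability assay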
Description: SANGER: Inhibition of human NB10 cell growth in a cell viability assay.

[19] = test system: NB13; format: functional, cell-based, Homo sapiens; conditions: Homo sapiens, NB13;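 further: cell viability readout measuring growth inhibition of human NB13 cells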
Description: SANGER: Inhibition of human NB13 cell growth in a cell viability assay.

[20] = test system: NB5; format: functional, cell-based, Homo sapiens; conditions: Homo sapiens, NB5;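 further: growth inhibition of NB5 cells, read out as cell viability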
Description: SANGER: Inhibition of human NB5 cell growth in a cell viability assay.

[21] = test system: NB6; format: functional, cell-based, Homo sapiens; conditions: Homo sapiens, NB6;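 further: growth inhibition of NB6 cells, read out by a cell viability assay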
Description: SANGER: Inhibition of human NB6 cell growth in a cell viability assay.

[22] = test system: NCI-H1299; format: functional, cell-based, Homo sapiens; conditions: Homo sapiens, NCI-H1299;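 further: growth inhibition of human NCI-H1299 cells, read out by a cell viability assay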
Description: SANGER: Inhibition of human NCI-H1299 cell growth in a cell viability assay.

[23] = test system: NCI-H1437; format: functional, cell-based, Homo sapiens; conditions: Homo sapiens, NCI-H1437;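 further: growth inhibition of human NCI-H1437 cells, read out by a cell viability assay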
Description: SANGER: Inhibition of human NCI-H1437 cell growth in a cell viability assay.

[24] = test system: NCI-H1581; format: functional, cell-based, Homo sapiens; conditions: Homo sapiens, NCI-H1581;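 further: cell growth inhibition read out by a viability assay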
Description: SANGER: Inhibition of human NCI-H1581 cell growth in a cell viability assay.

[25] = test system: NCI-H2347; format: functional, cell-based, Homo sapiens; conditions: Homo sapiens, NCI-H2347;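 further: growth inhibition of the cell line, read out with a cell viability assay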
Description: SANGER: Inhibition of human NCI-H2347 cell growth in a cell viability assay.

[26] = test system: NCI-H661; format: functional, cell-based, Homo sapiens; conditions: Homo sapiens, NCI-H661;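 further: cell viability assay read-out, IC50 being the concentration that inhibits growth of the cells by half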
Description: SANGER: Inhibition of human NCI-H661 cell growth in a cell viability assay.

[27] = test system: NCI-H727; format: functional, cell-based, Homo sapiens; conditions: Homo sapiens, NCI-H727;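 further: growth inhibition of human NCI-H727 cells, read out with a cell viability assay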
Description: SANGER: Inhibition of human NCI-H727 cell growth in a cell viability assay.

[28] = test system: NOS-1; format: functional, cell-based, Homo sapiens; conditions: Homo sapiens, NOS-1;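 further: growth inhibition of the human NOS-1 cell line, read out with a cell viability assay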
Description: SANGER: Inhibition of human NOS-1 cell growth in a cell viability assay.

[29] = test system: NUGC-3; format: functional, cell-based, Homo sapiens; conditions: Homo sapiens, NUGC-3;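 further: growth inhibition of human NUGC-3 cells, read out with a cell viability assay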
Description: SANGER: Inhibition of human NUGC-3 cell growth in a cell viability assay.

[30] = test system: PANC-08-13; format: functional, cell-based, Homo sapiens; conditions: Homo sapiens, PANC-08-13;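 further: cell growth inhibition, measured with a cell viability assay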
Description: SANGER: Inhibition of human PANC-08-13 cell growth in a cell viability assay.

[31] = test system: PC-3; format: functional, cell-based, Homo sapiens; conditions: Homo sapiens, PC-3;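 further: cell viability assay measuring growth inhibition of PC-3 cells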
Description: SANGER: Inhibition of human PC-3 cell growth in a cell viability assay.

[32] = test system: RCC10RGB; format: functional, cell-based, Homo sapiens; conditions: Homo sapiens, RCC10RGB;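 further: growth inhibition of human RCC10RGB cells, read out by a cell viability assay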
Description: SANGER: Inhibition of human RCC10RGB cell growth in a cell viability assay.

[33] = test system: RD; format: functional, cell-based, Homo sapiens; conditions: Homo sapiens, RD
Description: SANGER: Inhibition of human RD cell growth in a cell viability assay.

[34] = test system: RS4-11; format: functional, cell-based; conditions: Homo sapiens;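 further: growth inhibition of RS4-11 cells, read out by a cell viability assay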
Description: SANGER: Inhibition of human RS4-11 cell growth in a cell viability assay.

[35] = test system: SBC-5; format: functional, cell-based, Homo sapiens; conditions: Homo sapiens, SBC-5;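 further: cell viability assay read-out, IC50 is the concentration that inhibits growth of the cells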
Description: SANGER: Inhibition of human SBC-5 cell growth in a cell viability assay.

[36] = test system: SK-MEL-28; format: functional, cell-based; conditions: Homo sapiens;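 further: growth inhibition of human SK-MEL-28 cells, read out with a cell viability assay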
Description: SANGER: Inhibition of human SK-MEL-28 cell growth in a cell viability assay.

[37] = test system: SK-PN-DW; format: functional, cell-based; conditions: Homo sapiens;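 further: growth inhibition measured with a viability assay on these cells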
Description: SANGER: Inhibition of human SK-PN-DW cell growth in a cell viability assay.

[38] = test system: SW1710; format: functional, cell-based, Homo sapiens; conditions: Homo sapiens, SW1710;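 further: growth inhibition of SW1710 cells, determined with a cell viability assay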
Description: SANGER: Inhibition of human SW1710 cell growth in a cell viability assay.

[39] = test system: SW 954; format: functional, cell-based, Homo sapiens; conditions: Homo sapiens, SW 954;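 further: growth inhibition of SW954 human cancer cells, read out as cell viability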
Description: SANGER: Inhibition of human SW954 cell growth in a cell viability assay.

[40] = test system: A204; format: functional, cell-based, Homo sapiens; conditions: Homo sapiens, A204;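 further: growth inhibition of human A204 cells, read out with a cell viability assay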
Description: SANGER: Inhibition of human A204 cell growth in a cell viability assay.

[41] = test system: A-427; format: functional, cell-based, Homo sapiens; conditions: Homo sapiens, A-427;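 further: growth inhibition of human A-427 cells, read out by a cell viability assay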
Description: SANGER: Inhibition of human A427 cell growth in a cell viability assay.

[42] = test system: ALL-PO; format: functional, cell-based; conditions: Homo sapiens;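 further: growth inhibition of ALL-PO cells, read out by a cell viability assay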
Description: SANGER: Inhibition of human ALL-PO cell growth in a cell viability assay.

[43] = test system: BE-13; format: functional, cell-based; conditions: Homo sapiens;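 further: growth inhibition of human BE-13 cells, measured with a cell viability assay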
Description: SANGER: Inhibition of human BE-13 cell growth in a cell viability assay.

[44] = test system: CAL-120; format: functional, cell-based, Homo sapiens; conditions: Homo sapiens, CAL-120;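 further: cell growth inhibition, read out as cell viability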
Description: SANGER: Inhibition of human CAL-120 cell growth in a cell viability assay.

[45] = test system: CAL-72; format: functional, cell-based, Homo sapiens; conditions: Homo sapiens, CAL-72;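 further: cell viability assay measuring inhibition of proliferation in the CAL-72 cell line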
Description: SANGER: Inhibition of human CAL-72 cell growth in a cell viability assay.

[46] = test system: TE-9; format: functional, cell-based, Homo sapiens; conditions: Homo sapiens, TE-9;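 further: cell growth inhibition, measured with a cell viability readout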
Description: SANGER: Inhibition of human TE-9 cell growth in a cell viability assay.

[47] = test system: U-266; format: functional, cell-based; conditions: Homo sapiens
Description: SANGER: Inhibition of human U-266 cell growth in a cell viability assay.

[48] = test system: UO-31; format: functional, cell-based; conditions: Homo sapiens;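 further: cell viability assay measuring inhibition of cell growth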
Description: SANGER: Inhibition of human U031 cell growth in a cell viability assay.

[49] = test system: U-251; format: functional, cell-based, Homo sapiens; conditions: Homo sapiens, U-251;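 further: growth inhibition of human U-251 cells, read out through a cell viability assay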
Description: SANGER: Inhibition of human U251 cell growth in a cell viability assay.

[50] = test system: UACC-62; format: functional, cell-based, Homo sapiens; conditions: Homo sapiens, UACC-62;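 further: growth inhibition of human UACC-62 cells, read out by a cell viability assay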
Description: SANGER: Inhibition of human UACC-62 cell growth in a cell viability assay.

[51] = test system: no-11; format: functional, cell-based, Homo sapiens; conditions: Homo sapiens;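 further: growth inhibition of human NO-11 cells, read out with a cell viability assay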
Description: SANGER: Inhibition of human no-11 cell growth in a cell viability assay.

[52] = test system: CCRF-CEM; format: functional, cell-based; conditions: Homo sapiens;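 further: inhibition of CCRF-CEM cell growth, measured by a cell viability assay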
Description: SANGER: Inhibition of human CCRF-CEM cell growth in a cell viability assay.

[53] = test system: CGTH-W-1; format: functional, cell-based, Homo sapiens; conditions: Homo sapiens, CGTH-W-1;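 further: growth inhibition of human CGTH-W-1 cells measured by cell viability assay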
Description: SANGER: Inhibition of human CGTH-W-1 cell growth in a cell viability assay.

Q: What does the source list for `Nc1ccn([C@@H]2O[C@H](CO)[C@@H](O)[C@@H]2O)c(=O)n1` [CYTARABINE]?
A: IC50 [1]: 0.16 µM; IC50 [2]: 0.0344 µM; IC50 [3]: 0.613 µM; IC50 [4]: 1.68 µM; IC50 [5]: > 2 µM; IC50 [6]: > 2 µM; IC50 [7]: > 2 µM; IC50 [8]: > 2 µM; IC50 [9]: > 2 µM; IC50 [10]: 1.88 µM; IC50 [11]: 0.839 µM; IC50 [12]: 0.237 µM; IC50 [13]: 0.944 µM; IC50 [14]: > 2 µM; IC50 [15]: 0.632 µM; IC50 [16]: > 2 µM; IC50 [17]: > 2 µM; IC50 [18]: 0.188 µM; IC50 [19]: > 2 µM; IC50 [20]: 0.452 µM; IC50 [21]: > 2 µM; IC50 [22]: 0.672 µM; IC50 [23]: 0.798 µM; IC50 [24]: 1.77 µM; IC50 [25]: > 2 µM; IC50 [26]: 1.73 µM; IC50 [27]: > 2 µM; IC50 [28]: 1.91 µM; IC50 [29]: 0.589 µM; IC50 [30]: > 2 µM; IC50 [31]: 1.28 µM; IC50 [32]: > 2 µM; IC50 [33]: 1.27 µM; IC50 [34]: 0.381 µM; IC50 [35]: > 2 µM; IC50 [36]: 0.799 µM; IC50 [37]: 0.416 µM; IC50 [38]: 1.73 µM; IC50 [39]: > 2 µM; IC50 [40]: 0.311 µM; IC50 [41]: 0.0345 µM; IC50 [42]: 0.287 µM; IC50 [43]: 0.825 µM; IC50 [44]: > 2 µM; IC50 [45]: > 2 µM; IC50 [46]: 1.79 µM; IC50 [47]: > 2 µM; IC50 [48]: 1.25 µM; IC50 [49]: 1.13 µM; IC50 [50]: 0.666 µM; IC50 [51]: > 2 µM; IC50 [52]: > 2 µM; IC50 [53]: 0.182 µM

Q: For `CC(=O)O[C@@]12CO[C@@H]1C[C@H](O)[C@@]1(C)C(=O)[C@H](O)C3=C(C)[C@@H](OC(=O)[C@H](O)[C@@H](NC(=O)OC(C)(C)C)c4ccccc4)C[C@@](O)([C@@H](OC(=O)c4ccccc4)[C@H]21)C3(C)C` [DOCETAXEL], which IC50 [1] is on record?
A: > 0.01 µM

Q: What about the IC50 [2] of the same molecule?
A: 0.00192 µM

Q: And the IC50 [3]?
A: > 0.01 µM

Q: What about the IC50 [4] of the same molecule?
A: 0.00696 µM

Q: And the IC50 [5]?
A: 0.000558 µM

Q: What about the IC50 [6] of the same molecule?
A: > 0.01 µM

Q: What about the IC50 [7] of the same molecule?
A: 0.0051 µM

Q: What about the IC50 [8] of the same molecule?
A: > 0.01 µM

Q: And the IC50 [9]?
A: > 0.01 µM

Q: What about the IC50 [10] of the same molecule?
A: 0.006 µM

Q: And the IC50 [11]?
A: 0.00272 µM

Q: What about the IC50 [12] of the same molecule?
A: 0.00679 µM

Q: And the IC50 [13]?
A: > 0.01 µM

Q: What about the IC50 [14] of the same molecule?
A: > 0.01 µM

Q: What about the IC50 [15] of the same molecule?
A: 0.00191 µM

Q: And the IC50 [16]?
A: 0.00161 µM

Q: What about the IC50 [17] of the same molecule?
A: > 0.01 µM

Q: What about the IC50 [18] of the same molecule?
A: > 0.01 µM

Q: What about the IC50 [19] of the same molecule?
A: 0.00107 µM

Q: What about the IC50 [20] of the same molecule?
A: > 0.01 µM

Q: What about the IC50 [21] of the same molecule?
A: > 0.01 µM

Q: What about the IC50 [22] of the same molecule?
A: 0.00857 µM

Q: And the IC50 [23]?
A: 0.0026 µM

Q: And the IC50 [24]?
A: 0.00217 µM

Q: And the IC50 [25]?
A: > 0.01 µM

Q: And the IC50 [26]?
A: > 0.01 µM

Q: What about the IC50 [27] of the same molecule?
A: > 0.01 µM

Q: And the IC50 [28]?
A: > 0.01 µM

Q: What about the IC50 [29] of the same molecule?
A: 0.00308 µM

Q: What about the IC50 [30] of the same molecule?
A: > 0.01 µM

Q: What about the IC50 [31] of the same molecule?
A: > 0.01 µM

Q: And the IC50 [32]?
A: > 0.01 µM

Q: And the IC50 [33]?
A: 0.004 µM

Q: What about the IC50 [34] of the same molecule?
A: > 0.01 µM

Q: What about the IC50 [35] of the same molecule?
A: 0.00187 µM

Q: And the IC50 [36]?
A: 0.00203 µM

Q: And the IC50 [37]?
A: 0.00194 µM

Q: What about the IC50 [38] of the same molecule?
A: 0.000466 µM

Q: What about the IC50 [39] of the same molecule?
A: 0.000823 µM

Q: And the IC50 [40]?
A: 0.00934 µM

Q: What about the IC50 [41] of the same molecule?
A: 0.00148 µM

Q: And the IC50 [42]?
A: 0.0086 µM

Q: And the IC50 [43]?
A: 0.00393 µM

Q: What about the IC50 [44] of the same molecule?
A: 0.00435 µM

Q: What about the IC50 [45] of the same molecule?
A: > 0.01 µM

Q: What about the IC50 [46] of the same molecule?
A: 0.000676 µM

Q: What about the IC50 [47] of the same molecule?
A: 0.00348 µM

Q: And the IC50 [48]?
A: 0.00307 µM

Q: What about the IC50 [49] of the same molecule?
A: 0.0025 µM

Q: And the IC50 [50]?
A: 0.0033 µM

Q: What about the IC50 [51] of the same molecule?
A: > 0.01 µM

Q: What about the IC50 [52] of the same molecule?
A: > 0.01 µM

Q: And the IC50 [53]?
A: 0.000542 µM
